Our source for the IC50 values is patent publication US9493446B2, “Orexin receptor antagonists which are [ortho bi-(hetero-)aryl]-[2-(meta bi-(hetero-)aryl)-pyrrolidin-1-yl]-methanone derivatives” (Actelion Pharmaceuticals Ltd, priority 2012, dated 2016).

One assay has as its target human orexin-2 receptor (Homo sapiens (Human), UniProt O43614). The assay is described as follows: Intracellular calcium measurement (FLIPR), CHO cells expressing human orexin-2 receptor, 3 nM orexin-A. Format: cell-based. The note with it: read-out: IC50 OX2. In outline:
(§1)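 Antagonist is added 120 min before agonist. Fluo-4 AM-loaded CHO cells carry human orexin-1 or orexin-2 receptor, and calcium is read by FLIPR.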
For orientation: A change in cytosolic calcium serves as a functional read-out for many receptors and channels.

The next assay concerns the target orexin-1 (Homo sapiens (Human), UniProt O43613). As to the kind of experiment: Intracellular calcium measurement (FLIPR), CHO cells expressing human orexin-1 receptor, 3 nM orexin-A. The note with it: read-out: IC50 OX1. Format: cell-based. The method, boiled down:
as §1

Where [1] appears, read: CHO cells expressing human orexin-2 receptor, FLIPR, 3 nM orexin-A, geometric mean if determined several times.
The mark [2] stands for this setting: CHO cells expressing human orexin-1 receptor, FLIPR, 3 nM orexin-A, geometric mean if determined several times.

Each structure is given as a SMILES string. Where two headings read alike, the source gives them in different places.

Chain of orexin-1 (O43613 whole entry): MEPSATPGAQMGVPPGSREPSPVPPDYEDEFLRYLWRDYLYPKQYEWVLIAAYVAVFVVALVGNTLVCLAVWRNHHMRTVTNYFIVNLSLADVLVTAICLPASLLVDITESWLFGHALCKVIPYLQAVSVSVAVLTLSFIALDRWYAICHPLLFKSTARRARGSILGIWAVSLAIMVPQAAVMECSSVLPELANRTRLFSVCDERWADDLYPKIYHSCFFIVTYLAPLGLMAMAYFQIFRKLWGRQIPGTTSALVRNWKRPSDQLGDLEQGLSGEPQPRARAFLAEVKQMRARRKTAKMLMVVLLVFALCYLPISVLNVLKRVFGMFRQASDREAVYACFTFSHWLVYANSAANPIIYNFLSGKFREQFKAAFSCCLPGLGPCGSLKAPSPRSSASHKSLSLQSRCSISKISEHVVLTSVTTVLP
Chain of human orexin-2 receptor (O43614 whole entry): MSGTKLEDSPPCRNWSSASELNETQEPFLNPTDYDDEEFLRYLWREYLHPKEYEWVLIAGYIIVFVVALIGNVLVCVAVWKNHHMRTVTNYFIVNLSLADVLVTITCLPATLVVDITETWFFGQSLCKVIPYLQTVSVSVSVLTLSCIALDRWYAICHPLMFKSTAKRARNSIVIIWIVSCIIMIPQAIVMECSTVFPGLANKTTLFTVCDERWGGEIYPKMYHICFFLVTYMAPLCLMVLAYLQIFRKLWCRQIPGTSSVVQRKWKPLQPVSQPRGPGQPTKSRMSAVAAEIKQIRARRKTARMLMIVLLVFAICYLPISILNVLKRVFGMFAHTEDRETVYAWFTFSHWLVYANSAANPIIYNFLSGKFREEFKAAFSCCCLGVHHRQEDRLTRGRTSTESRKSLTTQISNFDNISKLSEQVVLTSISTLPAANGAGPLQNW

As to `Cc1ccc(-n2nccn2)c(C(=O)N2CCC[C@H]2c2nc(-c3cccnc3OC(C)C)no2)c1` [compound 71, {(S)-2-[3-(2-Isopropoxy-pyridin-3-yl)-[1,2,4]oxadiazol-5-yl]-pyrrolidin-1-yl}-(5-methyl-2-[1,2,3]triazol-2-yl-phenyl)-methanone], the concentration for half-maximal inhibition (IC50) at human orexin-2 receptor (setting [1]) is 22 nM; at orexin-1 (setting [2]) it was 8 nM.

For `COc1cccc(F)c1-c1noc([C@@H]2CCCN2C(=O)c2cc(C)ccc2-n2nccn2)n1` [compound 72, {(S)-2-[3-(2-Fluoro-6-methoxy-phenyl)-[1,2,4]oxadiazol-5-yl]-pyrrolidin-1-yl}-(5-methyl-2-[1,2,3]triazol-2-yl-phenyl)-methanone], the IC50 was 57 nM at human orexin-2 receptor (setting [1]) and 901 nM on orexin-1 (setting [2]).

Take `Cc1ccc(-n2nccn2)c(C(=O)N2CCC[C@H]2c2nc(-c3ccnc(Cl)c3)no2)c1` [compound 73]: the half-maximal inhibitory concentration (IC50) stood at 1160 nM at human orexin-2 receptor (setting [1]) and 3480 nM on orexin-1 (setting [2]).

Consider `Cc1ccc(-n2nccn2)c(C(=O)N2CCC[C@H]2c2nc(-c3cccc4c3ccn4C)no2)c1` [compound 74, {(S)-2-[3-(1-Methyl-1H-indol-4-yl)-[1,2,4]oxadiazol-5-yl]-pyrrolidin-1-yl}-(5-methyl-2-[1,2,3]triazol-2-yl-phenyl)-methanone], for which the values for the IC50 on human orexin-2 receptor (setting [1]) and on orexin-1 (setting [2]) were 6 nM and 254 nM, respectively.

With `Cc1ccc(-n2nccn2)c(C(=O)N2CCC[C@H]2c2nc(-c3ccnc4[nH]ccc34)no2)c1` [compound 75, (5-Methyl-2-[1,2,3]triazol-2-yl-phenyl)-{(S)-2-[3-(1H-pyrrolo[2,3-b]pyridin-4-yl)-[1,2,4]oxadiazol-5-yl]-pyrrolidin-1-yl}-methanone], the half-maximal inhibitory concentration (IC50) at human orexin-2 receptor (setting [1]) is 261 nM; on orexin-1 (setting [2]) it was 1570 nM.

In the case of `Cc1ccc(-n2nccn2)c(C(=O)N2CCC[C@H]2c2nc(-c3c(C)cccc3F)no2)c1` [compound 76, {(S)-2-[3-(2-Fluoro-6-methyl-phenyl)-[1,2,4]oxadiazol-5-yl]-pyrrolidin-1-yl}-(5-methyl-2-[1,2,3]triazol-2-yl-phenyl)-methanone], the IC50 on human orexin-2 receptor (setting [1]) amounted to 40 nM; on orexin-1 (setting [2]), 901 nM.

For `Cc1ccc(-n2nccn2)c(C(=O)N2CCC[C@H]2c2nc(-c3cccc4ccn(C)c34)no2)c1` [compound 77, {(S)-2-[3-(1-Methyl-1H-indol-7-yl)-[1,2,4]oxadiazol-5-yl]-pyrrolidin-1-yl}-(5-methyl-2-[1,2,3]triazol-2-yl-phenyl)-methanone], the concentration for half-maximal inhibition (IC50) at human orexin-2 receptor (setting [1]) was found to be 8 nM; at orexin-1 (setting [2]), 52 nM.

On to `Cc1ccc(-n2nccn2)c(C(=O)N2CCC[C@H]2c2nc(-c3cccnc3C)no2)c1` [compound 78, {(S)-2-[3-(2-Methyl-pyridin-3-yl)-[1,2,4]oxadiazol-5-yl]-pyrrolidin-1-yl}-(5-methyl-2-[1,2,3]triazol-2-yl-phenyl)-methanone], for which the IC50 came to 29 nM on human orexin-2 receptor (setting [1]) and 2290 nM at orexin-1 (setting [2]).

With `Cc1ccc(-n2nccn2)c(C(=O)N2CCC[C@H]2c2nc(-c3c[nH]c4cccc(C)c34)no2)c1` [compound 79, {(S)-2-[3-(4-Methyl-1H-indol-3-yl)-[1,2,4]oxadiazol-5-yl]-pyrrolidin-1-yl}-(5-methyl-2-[1,2,3]triazol-2-yl-phenyl)-methanone], the IC50 on human orexin-2 receptor (setting [1]) worked out at 1070 nM; on orexin-1 (setting [2]), 2750 nM.

Regarding `Cc1ccc(-n2nccn2)c(C(=O)N2CCC[C@H]2c2nc(-c3ccc(C)c(C)c3)no2)c1` [compound 80, {(S)-2-[3-(3,4-Dimethyl-phenyl)-[1,2,4]oxadiazol-5-yl]-pyrrolidin-1-yl}-(5-methyl-2-[1,2,3]triazol-2-yl-phenyl)-methanone], the figures for the IC50 on human orexin-2 receptor (setting [1]) and on orexin-1 (setting [2]) were 16 nM and 252 nM, respectively.

With `Cc1ccc(-c2noc([C@@H]3CCCN3C(=O)c3cc(C)ccc3-n3nccn3)n2)c(C)c1` [compound 81, {(S)-2-[3-(2,4-Dimethyl-phenyl)-[1,2,4]oxadiazol-5-yl]-pyrrolidin-1-yl}-(5-methyl-2-[1,2,3]triazol-2-yl-phenyl)-methanone], the IC50 on human orexin-2 receptor (setting [1]) is 19 nM; on orexin-1 (setting [2]), 309 nM.

As for `COc1ccc(-c2noc([C@@H]3CCCN3C(=O)c3cc(C)ccc3-n3nccn3)n2)cc1OC` [compound 82, {(S)-2-[3-(3,4-Dimethoxy-phenyl)-[1,2,4]oxadiazol-5-yl]-pyrrolidin-1-yl}-(5-methyl-2-[1,2,3]triazol-2-yl-phenyl)-methanone], the figures for the IC50 on human orexin-2 receptor (setting [1]) and on orexin-1 (setting [2]) were 131 nM and 874 nM, respectively.

Regarding `Cc1ccc(-n2nccn2)c(C(=O)N2CCC[C@H]2c2nc(-c3ncccc3C)no2)c1` [compound 83, {(S)-2-[3-(3-Methyl-pyridin-2-yl)-[1,2,4]oxadiazol-5-yl]-pyrrolidin-1-yl}-(5-methyl-2-[1,2,3]triazol-2-yl-phenyl)-methanone], the concentration for half-maximal inhibition (IC50) on human orexin-2 receptor (setting [1]) was determined as 302 nM; at orexin-1 (setting [2]), 3470 nM.

On to `Cc1ccc(-n2nccn2)c(C(=O)N2CCC[C@H]2c2nc(-c3cc(C)ccc3C)no2)c1` [compound 84, {(S)-2-[3-(2,5-Dimethyl-phenyl)-[1,2,4]oxadiazol-5-yl]-pyrrolidin-1-yl}-(5-methyl-2-[1,2,3]triazol-2-yl-phenyl)-methanone], for which the figures for the IC50 on human orexin-2 receptor (setting [1]) and at orexin-1 (setting [2]) were 8 nM and 63 nM, respectively.

`Cc1ccc(-c2ccccc2)c(C(=O)N2CCC[C@H]2c2nc(-c3cccc(Cl)c3C)no2)c1` [compound 88]: the IC50 at human orexin-2 receptor (setting [1]) is 11 nM; on orexin-1 (setting [2]), 49 nM.

`Cc1ccc(-n2cccn2)c(C(=O)N2CCC[C@H]2c2nc(-c3cccc(Cl)c3C)no2)c1` [compound 89]: the IC50 is 14 nM at human orexin-2 receptor (setting [1]) and 97 nM on orexin-1 (setting [2]).

Take `Cc1ccc(-c2ccccn2)c(C(=O)N2CCC[C@H]2c2nc(-c3cccc(Cl)c3C)no2)c1` [compound 90]: the IC50 on human orexin-2 receptor (setting [1]) is 25 nM; on orexin-1 (setting [2]) it was 137 nM.

Turning to `Cc1cccc(-c2oc(C)nc2C(=O)N2CCC[C@H]2c2nc(-c3cccc(Cl)c3C)no2)c1` [compound 91], the IC50 turned out to be 91 nM on human orexin-2 receptor (setting [1]) and 104 nM at orexin-1 (setting [2]).

In the case of `Cc1cccc(-c2ocnc2C(=O)N2CCC[C@H]2c2nc(-c3cccc(Cl)c3C)no2)c1` [compound 92], the half-inhibitory concentration (IC50) on human orexin-2 receptor (setting [1]) was 53 nM; on orexin-1 (setting [2]) it was 120 nM.

Turning to `Cc1c(Cl)cccc1-c1noc([C@@H]2CCCN2C(=O)c2ccccc2-n2nccn2)n1` [compound 93], the concentration for half-maximal inhibition (IC50) at human orexin-2 receptor (setting [1]) was determined as 28 nM; on orexin-1 (setting [2]) it was 399 nM.

`Cc1c(Cl)cccc1-c1noc([C@@H]2CCCN2C(=O)c2ncsc2-c2cccc(Cl)c2)n1` [compound 94]: the IC50 at human orexin-2 receptor (setting [1]) was 201 nM; on orexin-1 (setting [2]) it was 237 nM.

With `Cc1ccc(C(=O)N2CCC[C@H]2c2nc(-c3cccc(Cl)c3C)no2)c(-n2nccn2)c1` [compound 96], the results for the concentration for half-maximal inhibition (IC50) at human orexin-2 receptor (setting [1]) and at orexin-1 (setting [2]) were 12 nM and 109 nM, respectively.

In the case of `Cc1c(Cl)cccc1-c1noc([C@@H]2CCCN2C(=O)c2cc(C(F)(F)F)ccc2-n2nccn2)n1` [compound 97], the results for the IC50 on human orexin-2 receptor (setting [1]) and at orexin-1 (setting [2]) were 194 nM and 568 nM, respectively.

In the case of `Cc1cccc(-n2nccn2)c1C(=O)N1CCC[C@H]1c1nc(-c2cccc(Cl)c2C)no1` [compound 98], the IC50 on human orexin-2 receptor (setting [1]) is 127 nM; on orexin-1 (setting [2]), 462 nM.

Turning to `Cc1c(Cl)cccc1-c1noc([C@@H]2CCCN2C(=O)c2cc(OC(F)(F)F)ccc2-n2nccn2)n1` [compound 99], the 50% inhibitory concentration (IC50) on human orexin-2 receptor (setting [1]) came to 614 nM; on orexin-1, 895 nM.

Take `COc1ccc(-n2nccn2)c(C(=O)N2CCC[C@H]2c2nc(-c3cccc(Cl)c3C)no2)c1` [compound 100]: the IC50 on human orexin-2 receptor (setting [1]) is 8 nM; on orexin-1, 92 nM.

As to `COc1ccc(-c2ccccc2)c(C(=O)N2CCC[C@H]2c2nc(-c3cccc(Cl)c3C)no2)c1` [compound 101, {(S)-2-[3-(3-Chloro-2-methyl-phenyl)-[1,2,4]oxadiazol-5-yl]-pyrrolidin-1-yl}-(4-methoxy-biphenyl-2-yl)-methanone], the 50% inhibitory concentration (IC50) on human orexin-2 receptor (setting [1]) is 6 nM; at orexin-1 (setting [2]) it was 9 nM.

Turning to `COc1cc(C(=O)N2CCC[C@H]2c2nc(-c3cccc(Cl)c3C)no2)c(-n2nccn2)cc1C` [compound 103], the IC50 on human orexin-2 receptor (setting [1]) was 2 nM; on orexin-1 (setting [2]), 30 nM.

Regarding `Cc1c(Cl)cccc1-c1noc([C@@H]2CCCN2C(=O)c2cc(F)ccc2-n2nccn2)n1` [compound 104], the IC50 on human orexin-2 receptor is 38 nM; on orexin-1 (setting [2]) it was 1030 nM.

As for `COc1cc(C(=O)N2CCC[C@H]2c2nc(-c3cccc(Cl)c3C)no2)c(-n2cccn2)cc1C` [compound 105], the concentration for half-maximal inhibition (IC50) at human orexin-2 receptor (setting [1]) was found to be 8 nM; at orexin-1 it was 133 nM.

`COc1ccc(-n2cccn2)c(C(=O)N2CCC[C@H]2c2nc(-c3cccc(Cl)c3C)no2)c1` [compound 106]: the 50% inhibitory concentration (IC50) at human orexin-2 receptor (setting [1]) is 28 nM; on orexin-1 (setting [2]) it was 327 nM.

Take `Cc1c(Cl)cccc1-c1noc([C@@H]2CCCN2C(=O)c2cccnc2-c2ccccn2)n1` [compound 107]: the values for the IC50 at human orexin-2 receptor (setting [1]) and at orexin-1 (setting [2]) were 79 nM and 1040 nM, respectively.

As for `Cc1ccc(-n2cccn2)c(C(=O)N2CCC[C@H]2c2nc(-c3cccc(Cl)c3C)no2)n1` [compound 109], the values for the IC50 on human orexin-2 receptor and on orexin-1 were 199 nM and 976 nM, respectively.

For the compound `Cc1c(Cl)cccc1-c1noc([C@@H]2CCCN2C(=O)c2cc(F)c(F)cc2-n2nccn2)n1` [compound 110], the IC50 on human orexin-2 receptor (setting [1]) was 159 nM; on orexin-1 (setting [2]), 1690 nM.

Consider `Cc1c(Cl)cccc1-c1noc([C@@H]2CCCN2C(=O)c2ccc(F)cc2-n2cccn2)n1` [compound 111], for which the IC50 came to 261 nM at human orexin-2 receptor (setting [1]) and 1150 nM at orexin-1 (setting [2]).

`Cc1c(Cl)cccc1-c1noc([C@@H]2CCCN2C(=O)c2ccc(F)cc2-n2nccn2)n1` [compound 112]: the 50% inhibitory concentration (IC50) amounted to 121 nM on human orexin-2 receptor and 833 nM on orexin-1 (setting [2]).

`Cc1c(Cl)cccc1-c1noc([C@@H]2CCCN2C(=O)c2cccc(F)c2-n2cccn2)n1` [compound 113]: the 50% inhibitory concentration (IC50) at human orexin-2 receptor (setting [1]) was determined as 146 nM; at orexin-1 (setting [2]), 1200 nM.

On to `Cc1c(Cl)cccc1-c1noc([C@@H]2CCCN2C(=O)c2cccc(F)c2-n2nccn2)n1` [compound 114], for which the IC50 on human orexin-2 receptor amounted to 83 nM; on orexin-1, 1080 nM.

As usually defined, the IC50 is the midpoint of a concentration-inhibition curve.
